Results from patent US12180193B2, “Accelerating fibrosarcoma protein degrading compounds and associated methods of use” (Arvinas Operations, Inc., priority 2020, dated 2024).

Assays:
BRAF G466V = target: T1, BRAF G466V (Homo sapiens, UniProt P15056, G466V); test: Cellular assay of target protein degradation, T-Rex 293 cells stably transfected with HA-BRAF G466V (HA immunofluorescence, high content imaging); type: cell-based; conditions: T-Rex 293 HA-BRAF G466V; for DC50: half maximal degradation, read-out: BRaf G466V DC50; for Dmax: maximum degradation observed
T1 construct: expressed in transfected cells
How it was run: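 Cells expressing doxycycline-induced (0.75 ng/mL) HA-BRAF G466V were treated with compound at 30 nM to 3 pM in 0.1% DMSO for 24 hours at 37° C. After fixation and permeabilization, HA was immunostained and quantified by high content imaging to derive DC50 and Dmax.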

BRAF V600E = target: T2, BRAF V600E (Homo sapiens, UniProt P15056, V600E); test: Cellular assay of target protein degradation, T-Rex 293 cells stably transfected with HA-BRAF_V600E (HA immunofluorescence, high content imaging); type: cell-based; conditions: T-Rex 293 HA-BRAF V600E; for DC50: half maximal degradation, read-out: BRaf V600E DC50; for Dmax: maximum degradation observed
T2 construct: expressed in transfected cells
How it was run: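 Doxycycline-induced (1 ng/mL) cells were treated 24 h at 37 °C with compound at 1 μM to 0.1 nM final in 0.1% DMSO. After fixation, permeabilization and blocking, anti-HA staining was imaged by high-content reading; DC50 and Dmax (% of control) were derived.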

T2 sequence (P15056 whole entry V600E): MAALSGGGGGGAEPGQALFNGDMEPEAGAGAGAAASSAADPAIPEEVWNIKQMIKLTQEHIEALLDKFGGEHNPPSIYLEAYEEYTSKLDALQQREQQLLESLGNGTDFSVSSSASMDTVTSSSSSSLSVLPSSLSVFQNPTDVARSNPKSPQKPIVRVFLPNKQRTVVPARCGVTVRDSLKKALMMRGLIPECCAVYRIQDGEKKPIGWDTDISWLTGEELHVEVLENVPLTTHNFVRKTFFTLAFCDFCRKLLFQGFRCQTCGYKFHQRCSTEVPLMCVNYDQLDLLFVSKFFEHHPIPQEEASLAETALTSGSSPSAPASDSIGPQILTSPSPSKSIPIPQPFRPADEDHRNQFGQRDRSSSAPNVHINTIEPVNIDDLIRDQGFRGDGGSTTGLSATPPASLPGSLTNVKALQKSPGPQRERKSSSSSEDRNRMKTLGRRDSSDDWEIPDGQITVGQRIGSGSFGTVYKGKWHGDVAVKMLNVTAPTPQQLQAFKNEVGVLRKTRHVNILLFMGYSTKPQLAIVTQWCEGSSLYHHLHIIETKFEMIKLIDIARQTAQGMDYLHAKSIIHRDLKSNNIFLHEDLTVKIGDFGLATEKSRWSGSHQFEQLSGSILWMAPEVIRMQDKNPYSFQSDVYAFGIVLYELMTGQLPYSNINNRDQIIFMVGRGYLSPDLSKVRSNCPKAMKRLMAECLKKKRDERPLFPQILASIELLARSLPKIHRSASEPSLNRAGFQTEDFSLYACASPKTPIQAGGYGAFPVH
T1 sequence (P15056 whole entry G466V): as the sequence (P15056 whole entry V600E) above, with G466V, E600V counted along it

DC50 (BRAF G466V)	Dmax (BRAF G466V)	DC50 (BRAF V600E)	Dmax (BRAF V600E)	Structure (SMILES)
< 1 nM	> 70%	5 to 50 nM	35 to 70%	CCCS(=O)(=O)Nc1ccc(F)c(C(=O)c2c[nH]c3ncc(-c4ccc(N5CCC(CN6CC7(C6)CN(c6ccc8c(c6)CN([C@H]6CCC(=O)NC6=O)C8=O)C7)CC5)cc4)cc23)c1F [Compound 228, N-{3-[5-(4-{4-[(6-{2-[(3S)-2,6-dioxopiperidin-3-yl]-1-oxo-2,3-dihydro-1H-isoindol-5-yl}-2,6-diazaspiro[3.3]heptan-2-yl)methyl]piperidin-1-yl}phenyl)-1H-pyrrolo [2,3-b]pyridine-3-carbonyl]-2,4-difluorophenyl} propane-1-sulfonamide]
< 1 nM	35 to 70%	5 to 50 nM	35 to 70%	N#Cc1cc(-c2cnc3[nH]cc(C(=O)c4c(F)ccc(NS(=O)(=O)N5CC[C@@H](F)C5)c4F)c3c2)ccc1N1CCC(CN2CCC(c3ccc4c(c3)CN([C@H]3CCC(=O)NC3=O)C4=O)CC2)CC1 [Compound 205, (3R)—N-{3-[5-(3-cyano-4-{4-[(4-{2-[(3S)-2,6-dioxopiperidin-3-yl]-1-oxo-2,3-dihydro-1H-isoindol-5-yl}piperidin-1-yl)methyl]piperidin-1-yl}phenyl)-1H-pyrrolo[2,3-b]pyridine-3-carbonyl]-2,4-difluorophenyl}-3-fluoropyrrolidine-1-sulfonamide]
10 to 30 nM	35 to 70%	50 to 500 nM	35 to 70%	CCCS(=O)(=O)Nc1ccc(F)c(-n2cc(-c3cncnc3)c3nc(N(C)C4CCN(C(=O)CCOCCOCCOCCOCCNc5cccc6c5C(=O)N(C5CCC(=O)NC5=O)C6=O)CC4)ccc32)c1F (centres unmarked) [Compound 338]
1 to 10 nM	35 to 70%	5 to 50 nM	35 to 70%	COc1ccc(NS(=O)(=O)N2CC[C@@H](F)C2)c(F)c1C(=O)c1c[nH]c2ncc(-c3ccc(N4CCC(CN5CCC(c6ccc7c(c6)CN(C6CCC(=O)NC6=O)C7=O)CC5)CC4)cc3)cc12 (stereo partly drawn) [Compound 269, (3R)-N-[3-(5-{4-[4-({4-[2-(2,6-dioxopiperidin-3-yl)-1-oxo-2,3-dihydro-1H-isoindol-5-yl]piperidin-1-yl}methyl)piperidin-1-yl]phenyl}-1H-pyrrolo[2,3-b]pyridine-3-carbonyl)-2-fluoro-4-methoxyphenyl]-3-fluoropyrrolidine-1-sulfonamide]
< 1 nM	> 70%	5 to 50 nM	35 to 70%	O=C1CCC(N2Cc3cc(N4CC5(CN(CCOc6ccc(-c7cnc8[nH]cc(C(=O)c9c(F)ccc(NS(=O)(=O)N%10CC[C@@H](F)C%10)c9F)c8c7)cc6)C5)C4)ccc3C2=O)C(=O)N1 (stereo partly drawn) [Compound 50, (3R)-N-(3-{5-[4-(2-{6-[2-(2,6-dioxopiperidin-3-yl)-1-oxo-2,3-dihydro-1H-isoindol-5-yl]-2,6-diazaspiro[3.3]heptan-2-yl}ethoxy)phenyl]-1H-pyrrolo[2,3-b]pyridine-3-carbonyl}-2,4-difluorophenyl)-3-fluoropyrrolidine-1-sulfonamide]
1 to 10 nM	> 70%	5 to 50 nM	35 to 70%	C[C@H]1C[C@@H](CN2CCC(c3ccc4c(c3)CN([C@@H]3CCC(=O)NC3=O)C4=O)CC2)CCN1c1ccc(-c2cnc3[nH]cc(C(=O)c4c(F)ccc(NS(=O)(=O)N5CC[C@@H](F)C5)c4F)c3c2)cc1 [Compound 240, (3R)-N-[3-(5-{4-[(2S,4S)-4-[(4-{2-[(3R)-2,6-dioxopiperidin-3-yl]-1-oxo-2,3-dihydro-1H-isoindol-5-yl}piperidin-1-yl)methyl]-2-methylpiperidin-1-yl]phenyl}-1H-pyrrolo[2,3-b]pyridine-3-carbonyl)-2,4-difluorophenyl]-3-fluoropyrrolidine-1-sulfonamide]
1 to 10 nM	> 70%	50 to 500 nM	35 to 70%	O=C1CCC(N2Cc3cc(C4CCN(CCc5ccc(-c6cnc7[nH]cc(C(=O)c8c(F)ccc(NS(=O)(=O)N9CC[C@@H](F)C9)c8F)c7c6)cc5)[C@@H](CO)C4)ccc3C2=O)C(=O)N1 (stereo partly drawn) [Compound 150, (3R)-N-{3-[5-(4-{2-[(2R)-4-[2-(2,6-dioxopiperidin-3-yl)-1-oxo-2,3-dihydro-1H-isoindol-5-yl]-2-(hydroxymethyl)piperidin-1-yl]ethyl}phenyl)-1H-pyrrolo[2,3-b]pyridine-3-carbonyl]-2,4-difluorophenyl}-3-fluoropyrrolidine-1-sulfonamide]
< 1 nM	35 to 70%	< 5 nM	35 to 70%	CCc1c(NS(=O)(=O)N2CC[C@@H](F)C2)ccc(F)c1C(=O)c1c[nH]c2ncc(-c3ccc(N4CCC(CN5CCC(c6ccc7c(c6)CN(C6CCC(=O)NC6=O)C7=O)CC5)CC4)cc3)cc12 (stereo partly drawn) [Compound 276, (3R)-N-[3-(5-{4-[4-({4-[2-(2,6-dioxopiperidin-3-yl)-1-oxo-2,3-dihydro-1H-isoindol-5-yl]piperidin-1-yl}methyl)piperidin-1-yl]phenyl}-1H-pyrrolo[2,3-b]pyridine-3-carbonyl)-2-ethyl-4-fluorophenyl]-3-fluoropyrrolidine-1-sulfonamide]
1 to 10 nM	35 to 70%	50 to 500 nM	35 to 70%	O=C1CCC(N2Cc3cc(N4CC(CN5CCN(Cc6ncc(-c7cnc8[nH]cc(C(=O)c9c(F)ccc(NS(=O)(=O)N%10CC[C@@H](F)C%10)c9F)c8c7)cn6)CC5)C4)ccc3C2=O)C(=O)N1 (stereo partly drawn) [Compound 193, (3R)-N-{3-[5-(2-{[4-({1-[2-(2,6-dioxopiperidin-3-yl)-1-oxo-2,3-dihydro-1H-isoindol-5-yl]azetidin-3-yl}methyl)piperazin-1-yl]methyl}pyrimidin-5-yl)-1H-pyrrolo[2,3-b]pyridine-3-carbonyl]-2,4-difluorophenyl}-3-fluoropyrrolidine-1-sulfonamide]
< 1 nM	> 70%	5 to 50 nM	35 to 70%	O=C1CCC(N2Cc3cc(C4CCN(C[C@H]5CCN(c6ccc(-c7cnc8[nH]cc(C(=O)c9c(F)ccc(NS(=O)(=O)N%10CC[C@@H](F)C%10)c9F)c8c7)cc6)C[C@H]5F)CC4)ccc3C2=O)C(=O)N1 (stereo partly drawn) [Compound 297, (3R)-N-[3-(5-{4-[(3S,4R)-4-({4-[2-(2,6-dioxopiperidin-3-yl)-1-oxo-2,3-dihydro-1H-isoindol-5-yl]piperidin-1-yl}methyl)-3-fluoropiperidin-1-yl]phenyl}-1H-pyrrolo[2,3-b]pyridine-3-carbonyl)-2,4-difluorophenyl]-3-fluoropyrrolidine-1-sulfonamide]
1 to 10 nM	> 70%	5 to 50 nM	35 to 70%	COc1cc(C2CCN(CC3CCN(c4ccc(-c5cnc6[nH]cc(C(=O)c7c(F)ccc(NS(=O)(=O)N8CC[C@@H](F)C8)c7F)c6c5)cc4F)CC3)CC2)cc2c1C(=O)N(C1CCC(=O)NC1=O)C2 (stereo partly drawn) [Compound 163, (3R)-N-[3-(5-{4-[4-({4-[2-(2,6-dioxopiperidin-3-yl)-7-methoxy-1-oxo-2,3-dihydro-1H-isoindol-5-yl]piperidin-1-yl}methyl)piperidin-1-yl]-3-fluorophenyl}-1H-pyrrolo [2,3-b]pyridine-3-carbonyl)-2,4-difluorophenyl]-3-fluoropyrrolidine-1-sulfonamide]
